Assay results reported in patent US10479784B2, “Substituted pyrazin-2-amines as inhibitors of ATR kinase” (Vertex Pharmaceuticals Incorporated, priority 2008, dated 2019).

Target: full-length ATR (Homo sapiens (Human), UniProt Q13535)
Test: ATR Inhibition Assay (radioactive-phosphate incorporation)
Type: biochemical
Details: read-out: ATR Ki
How it was run: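 Full-length human ATR (5 nM) was assayed at 25 °C in 50 mM Tris/HCl pH 7.5, 10 mM MgCl2, 1 mM DTT, with 10 μM [γ-33P]ATP and 800 μM peptide, after 10-min compound preincubation. Reactions were stopped after 24 h, captured on phosphocellulose and counted; Ki(app) came from non-linear regression of initial rates.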

Sequence of full-length ATR (Q13535 whole entry): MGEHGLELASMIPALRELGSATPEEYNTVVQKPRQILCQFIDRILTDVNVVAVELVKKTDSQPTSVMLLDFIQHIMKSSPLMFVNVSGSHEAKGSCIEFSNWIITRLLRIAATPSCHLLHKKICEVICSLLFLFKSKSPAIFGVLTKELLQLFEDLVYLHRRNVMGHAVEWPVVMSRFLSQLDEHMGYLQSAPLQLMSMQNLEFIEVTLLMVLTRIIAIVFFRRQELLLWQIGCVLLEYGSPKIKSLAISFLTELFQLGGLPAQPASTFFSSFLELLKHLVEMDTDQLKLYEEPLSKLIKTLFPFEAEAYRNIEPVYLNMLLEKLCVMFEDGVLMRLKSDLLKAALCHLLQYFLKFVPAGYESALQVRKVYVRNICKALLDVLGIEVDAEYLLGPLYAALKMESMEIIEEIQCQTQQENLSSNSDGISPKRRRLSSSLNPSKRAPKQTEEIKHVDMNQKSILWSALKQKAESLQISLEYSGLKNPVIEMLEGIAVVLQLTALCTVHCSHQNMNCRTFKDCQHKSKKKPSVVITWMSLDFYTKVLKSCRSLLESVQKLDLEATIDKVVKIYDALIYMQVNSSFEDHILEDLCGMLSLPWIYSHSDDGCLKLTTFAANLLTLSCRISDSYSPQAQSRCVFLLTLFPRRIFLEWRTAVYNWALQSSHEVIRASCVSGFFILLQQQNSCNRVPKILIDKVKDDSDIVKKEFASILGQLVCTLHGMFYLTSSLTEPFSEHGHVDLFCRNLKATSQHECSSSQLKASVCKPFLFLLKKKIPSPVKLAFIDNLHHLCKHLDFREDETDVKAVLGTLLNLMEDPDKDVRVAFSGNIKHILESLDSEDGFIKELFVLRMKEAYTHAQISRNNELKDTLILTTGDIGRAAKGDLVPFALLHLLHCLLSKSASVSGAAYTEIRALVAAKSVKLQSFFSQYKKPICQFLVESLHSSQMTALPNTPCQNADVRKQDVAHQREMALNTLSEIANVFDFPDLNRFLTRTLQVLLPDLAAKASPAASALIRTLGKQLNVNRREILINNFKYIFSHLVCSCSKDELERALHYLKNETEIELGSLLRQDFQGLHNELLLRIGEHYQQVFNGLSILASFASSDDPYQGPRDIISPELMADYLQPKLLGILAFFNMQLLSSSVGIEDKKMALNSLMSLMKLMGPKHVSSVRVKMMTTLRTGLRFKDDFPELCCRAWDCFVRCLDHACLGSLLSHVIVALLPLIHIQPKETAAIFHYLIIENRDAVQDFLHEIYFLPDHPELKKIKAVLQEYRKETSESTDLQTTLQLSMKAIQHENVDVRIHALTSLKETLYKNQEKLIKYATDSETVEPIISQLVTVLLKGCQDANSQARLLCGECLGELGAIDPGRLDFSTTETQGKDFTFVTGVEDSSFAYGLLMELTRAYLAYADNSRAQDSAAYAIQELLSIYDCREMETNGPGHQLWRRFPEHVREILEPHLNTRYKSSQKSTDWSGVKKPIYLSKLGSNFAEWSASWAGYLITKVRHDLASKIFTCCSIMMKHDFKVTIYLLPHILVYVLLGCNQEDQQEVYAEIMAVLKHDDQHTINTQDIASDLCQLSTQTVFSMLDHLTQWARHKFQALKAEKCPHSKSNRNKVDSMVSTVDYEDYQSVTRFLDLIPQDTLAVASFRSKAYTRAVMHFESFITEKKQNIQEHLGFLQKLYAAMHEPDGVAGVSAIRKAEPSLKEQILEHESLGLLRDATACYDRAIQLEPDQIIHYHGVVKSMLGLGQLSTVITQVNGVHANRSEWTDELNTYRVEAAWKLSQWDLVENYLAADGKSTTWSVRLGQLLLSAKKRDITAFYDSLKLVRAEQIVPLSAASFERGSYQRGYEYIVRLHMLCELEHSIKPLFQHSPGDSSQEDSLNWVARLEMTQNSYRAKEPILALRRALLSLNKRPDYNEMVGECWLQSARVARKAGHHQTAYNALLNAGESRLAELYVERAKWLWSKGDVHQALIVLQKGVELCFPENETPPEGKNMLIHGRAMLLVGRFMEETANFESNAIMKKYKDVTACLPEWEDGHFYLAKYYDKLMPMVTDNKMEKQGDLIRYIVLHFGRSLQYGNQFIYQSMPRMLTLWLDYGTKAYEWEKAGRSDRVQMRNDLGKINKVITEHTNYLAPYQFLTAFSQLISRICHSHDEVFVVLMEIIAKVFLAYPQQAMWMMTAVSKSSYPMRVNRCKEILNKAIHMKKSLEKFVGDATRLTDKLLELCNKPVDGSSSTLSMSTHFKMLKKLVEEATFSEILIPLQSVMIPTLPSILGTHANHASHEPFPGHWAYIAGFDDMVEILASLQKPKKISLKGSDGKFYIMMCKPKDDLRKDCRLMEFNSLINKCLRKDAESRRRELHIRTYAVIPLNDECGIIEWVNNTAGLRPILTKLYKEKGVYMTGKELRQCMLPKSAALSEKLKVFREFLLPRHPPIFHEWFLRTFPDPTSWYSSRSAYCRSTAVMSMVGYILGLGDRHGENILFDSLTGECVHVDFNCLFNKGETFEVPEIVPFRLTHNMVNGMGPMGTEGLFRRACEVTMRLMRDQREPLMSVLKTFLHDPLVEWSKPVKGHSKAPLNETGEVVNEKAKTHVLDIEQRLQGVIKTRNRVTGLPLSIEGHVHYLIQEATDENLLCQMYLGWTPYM

SMILES | Ki [nM]
Nc1ncc(-c2ccc(C(=O)NCCCO)cc2)nc1-c1nc2ccccc2[nH]1 [Compound I-128, 4-(5-amino-6-(1H-benzo[d]imidazol-2-yl)pyrazin-2-yl)-N-(3-hydroxypropyl)benzamide] | 10 to 100
Cc1cccc2nc(-c3nc(-c4ccc(S(C)(=O)=O)cc4)cnc3N)[nH]c12 [Compound I-119, 3-(7-methyl-1H-benzo[d]imidazol-2-yl)-5-(4-(methylsulfonyl)phenyl) pyrazin-2-amine] | 10 to 100
N#Cc1cnccc1-c1cnc(N)c(C(=O)Nc2nc3ccccc3[nH]2)n1 [Compound V-3] | ≤ 10
Nc1ncc(-c2ccc(C(=O)N3CCNCC3)cc2)nc1C(=O)Nc1ccccc1 [Compound I-74, 3-amino-N-phenyl-6-(4-(piperazine-1-carbonyl)phenyl)pyrazine-2-carboxamide] | 10 to 100
CS(=O)(=O)c1ccc(-c2cnc(N)c(-c3nc4ccc(Cl)cc4[nH]3)n2)cc1 [Compound I-114, 3-(6-chloro-1H-benzo[d]imidazol-2-yl)-5-(4-(methylsulfonyl)phenyl) pyrazin-2-amine] | ≤ 10
Nc1ncc(-c2ccc(C(=O)N3CCCNCC3)cc2)nc1C(=O)Nc1ccc2cn[nH]c2c1 [Compound V-4] | 10 to 100
Cc1ccc2nc(-c3nc(-c4ccc(S(C)(=O)=O)cc4)cnc3N)[nH]c2c1 [Compound I-117, 3-(6-methyl-1H-benzo[d]imidazol-2-yl)-5-(4-(methylsulfonyl)phenyl) pyrazin-2-amine] | 10 to 100
Nc1ncc(-c2ccc(C(=O)CN3CCC(O)CC3)cc2)nc1C(=O)Nc1ccccc1 [Compound I-23, 3-amino-6-(4-(2-(4-hydroxypiperidin-1-yl)acetyl)phenyl)-N-phenylpyrazine-2-carboxamide] | 10 to 100
COc1cc(-c2cnc(N)c(C(=O)Nc3ccccc3)n2)ccn1 [Compound I-38, 3-amino-6-(2-methoxypyridin-4-yl)-N-phenylpyrazine-2-carboxamide] | 10 to 100
CC(C)S(=O)(=O)c1ccc(-c2cnc(N)c(-c3nnc(C4=CCNCC4)o3)n2)cc1 [IA-232, 5-(4-isopropylsulfonylphenyl)-3-[5-(1,2,3,6-tetrahydropyridin-4-yl)-1,3,4-oxadiazol-2-yl]pyrazin-2-amine] | 10 to 100
COCCN(C)C(=O)c1cccc(-c2cnc(N)c(C(=O)Nc3ccccc3)n2)c1 [Compound I-67, 3-amino-6-(3-((2-methoxyethyl)(methyl)carbamoyl)phenyl)-N-phenylpyrazine-2-carboxamide] | 10 to 100
Nc1ncc(-c2ccc(C(=O)NC3CC3)cc2)nc1C(=O)Nc1ccccc1 [Compound I-51, 3-amino-6-(4-(cyclopropylcarbamoyl)phenyl)-N-phenylpyrazine-2-carboxamide] | 10 to 100
CS(=O)(=O)c1ccc(-c2cnc(N)c(-c3nc4ccccc4s3)n2)cc1 [Compound I-146, 3-(benzo[d]thiazol-2-yl)-5-(4-(methylsulfonyl)phenyl)pyrazin-2-amine] | 10 to 100
Nc1ncc(-c2cccc(C(=O)N3CCOCC3)c2)nc1C(=O)Nc1ccccc1 [Compound I-20, 3-amino-6-(3-(morpholine-4-carbonyl)phenyl)-N-phenylpyrazine-2-carboxamide] | 10 to 100
Nc1ncc(-c2cccnc2)nc1C(=O)Nc1ccccn1 [Compound I-97, 3-amino-N-(pyridin-2-yl)-6-(pyridin-3-yl)pyrazine-2-carboxamide] | 100 to 5000
Nc1ncc(-c2cccnc2)nc1C(=O)Nc1ccc2cc[nH]c2c1 [Compound I-105, 3-amino-N-(1H-indol-6-yl)-6-(pyridin-3-yl)pyrazine-2-carboxamide] | 10 to 100

More lines, now with the values ahead:

Ki [nM] | SMILES
100 to 5000 | CN1CCN(c2ccc(-c3cnc(N)c(-c4nnc(-c5ccccc5)o4)n3)cn2)CC1 [IA-200, 5-(6-(4-methylpiperazin-1-yl)pyridin-3-yl)-3-(5-phenyl-1,3,4-oxadiazol-2-yl)pyrazin-2-amine]
100 to 5000 | Cc1cc(NC(=O)c2nc(-c3ccc(S(C)(=O)=O)cc3)cnc2N)n(C)n1 [VII-3]
10 to 100 | Nc1ncc(-c2ccc(N3CCOCC3)nc2)nc1-c1nnc(-c2ccccc2)o1 [IA-283, 5-(6-morpholino-3-pyridyl)-3-(5-phenyl-1,3,4-oxadiazol-2-yl)pyrazin-2-amine]
≤ 10 | CC(C)S(=O)(=O)c1ccc(-c2cnc(N)c(-c3nnc(-c4ccc(CNCCF)cc4)o3)n2)cc1 [IA-346, 3-[5-[4-[(2-fluoroethylamino)methyl]phenyl]-1,3,4-oxadiazol-2-yl]-5-(4-isopropylsulfonylphenyl)pyrazin-2-amine]
100 to 5000 | COc1ccc(-c2cnc(N)c(-c3nnc(-c4ccccc4)o3)n2)cn1 [IA-117, 5-(6-methoxy-3-pyridyl)-3-(5-phenyl-1,3,4-oxadiazol-2-yl)pyrazin-2-amine]
≤ 10 | Cc1csc(-c2nnc(-c3nc(-c4ccc(C(=O)N(C)C)cc4)cnc3N)o2)c1 [IA-246, 4-[5-amino-6-[5-(4-methyl-2-thienyl)-1,3,4-oxadiazol-2-yl]pyrazin-2-yl]-N,N-dimethyl-benzamide]
100 to 5000 | CC(C)S(=O)(=O)c1ccc(-c2cnc(N)c(-c3nnc(N4CCC(N)C4)o3)n2)cc1 (stereo not drawn) [IA-188, 3-[5-(3-aminopyrrolidin-1-yl)-1,3,4-oxadiazol-2-yl]-5-(4-isopropylsulfonylphenyl)pyrazin-2-amine]
≤ 10 | N#Cc1ncccc1-c1cnc(N)c(-c2nnc(-c3ccccc3)o2)n1 [IA-74, 3-[5-amino-6-(5-phenyl-1,3,4-oxadiazol-2-yl)pyrazin-2-yl]pyridine-2-carbonitrile]
≤ 10 | CN(C)C(=O)c1ccc(-c2cnc(N)c(-c3nnc(-c4ccccc4F)o3)n2)cc1 [IA-30]
10 to 100 | Cc1cc(NC(=O)c2nc(-c3ccc(S(C)(=O)=O)cc3)cnc2N)ccn1 [VII-2]
10 to 100 | NC(=O)c1cccc(-c2cnc(N)c(-c3nnc(-c4ccccc4)o3)n2)c1 [IA-100, 3-[5-amino-6-(5-phenyl-1,3,4-oxadiazol-2-yl)pyrazin-2-yl]benzamide]
≤ 10 | CCS(=O)(=O)c1ccc(-c2cnc(N)c(-c3nnc(-c4ccccc4)o3)n2)cc1 [IA-149, 5-(4-ethylsulfonylphenyl)-3-(5-phenyl-1,3,4-oxadiazol-2-yl)pyrazin-2-amine]
10 to 100 | CN(C)C(=O)c1ccc(-c2cnc(N)c(-c3nnc(-c4cccc(CCO)c4)o3)n2)cc1 [IA-69, 4-[5-amino-6-[5-[3-(2-hydroxyethyl)phenyl]-1,3,4-oxadiazol-2-yl]pyrazin-2-yl]-N,N-dimethyl-benzamide]
≤ 10 | CC(C)S(=O)(=O)c1ccc(-c2cnc(N)c(-c3nnc(-c4ccc(CN(C)C)cc4)o3)n2)cc1 [IA-243, 3-[5-[4-(dimethylaminomethyl)phenyl]-1,3,4-oxadiazol-2-yl]-5-(4-isopropylsulfonylphenyl)pyrazin-2-amine]
10 to 100 | CN(C)C(=O)c1ccc(-c2cnc(N)c(-c3nnc(Nc4ccc(Cl)cc4)o3)n2)cc1 [IA-42]
≤ 10 | CNCc1ccc(-c2nnc(-c3nc(-c4ccc(S(C)(=O)=O)cc4)cnc3N)o2)cc1 [IA-288, 3-[5-[4-(methylaminomethyl)phenyl]-1,3,4-oxadiazol-2-yl]-5-(4-methylsulfonylphenyl)pyrazin-2-amine]
≤ 10 | CN(C)C(=O)c1ccc(-c2cnc(N)c(-c3nnc(-c4ccccc4)o3)n2)cc1 [IA-23, 4-(5-amino-6-(5-phenyl-1,3,4-oxadiazol-2-yl)pyrazin-2-yl)-N,N-dimethylbenzamide]
10 to 100 | CN(C)C(=O)c1ccc(-c2cnc(N)c(-c3nnc(-c4cccnc4)o3)n2)cc1 [IA-41]
100 to 5000 | Nc1ncc(-c2cccc(CO)c2)nc1-c1nnc(-c2ccccc2)o1 [IA-202, [3-[5-amino-6-(5-phenyl-1,3,4-oxadiazol-2-yl)pyrazin-2-yl]phenyl]methanol]
100 to 5000 | Nc1ncc(-c2ccccc2-c2cnco2)nc1-c1nnc(-c2ccccc2)o1 [IA-207, 5-(2-oxazol-5-ylphenyl)-3-(5-phenyl-1,3,4-oxadiazol-2-yl)pyrazin-2-amine]
≤ 10 | N#Cc1cccn1-c1cnc(N)c(-c2nnc(-c3ccccc3)o2)n1 [IA-264, 1-[5-amino-6-(5-phenyl-1,3,4-oxadiazol-2-yl)pyrazin-2-yl]pyrrole-2-carbonitrile]
100 to 5000 | Nc1ncc(-c2ccccc2-c2ccccc2)nc1-c1nnc(-c2ccccc2)o1 [IA-134, 3-(5-phenyl-1,3,4-oxadiazol-2-yl)-5-(2-phenylphenyl)pyrazin-2-amine]
100 to 5000 | CC(C)S(=O)(=O)c1ccc(-c2cnc(N)c(-c3nnc(NC(=O)C(C)(C)N)o3)n2)cc1 [IA-219, 2-amino-N-[5-[3-amino-6-(4-isopropylsulfonylphenyl)pyrazin-2-yl]-1,3,4-oxadiazol-2-yl]-2-methyl-propanamide]
10 to 100 | COc1ccccc1Nc1nnc(-c2nc(-c3ccc(C(=O)N(C)C)cc3)cnc2N)o1 [IA-103, 4-[5-amino-6-[5-(2-methoxyanilino)-1,3,4-oxadiazol-2-yl]pyrazin-2-yl]-N,N-dimethyl-benzamide]
10 to 100 | CC(=O)Nc1ccccc1-c1cnc(N)c(-c2nnc(-c3ccccc3)o2)n1 [IA-267, N-(2-(5-amino-6-(5-phenyl-1,3,4-oxadiazol-2-yl)pyrazin-2-yl)phenyl)ethanamide]
10 to 100 | Cc1cnc(NC(=O)c2nc(-c3ccc(S(C)(=O)=O)cc3)cnc2N)s1 [VII-8]
100 to 5000 | Nc1ncc(-c2cccc3ccccc23)nc1-c1nnc(-c2ccccc2)o1 [IA-93, 5-(1-naphthyl)-3-(5-phenyl-1,3,4-oxadiazol-2-yl)pyrazin-2-amine]
≤ 10 | CC(C)S(=O)(=O)c1ccc(-c2cnc(N)c(-c3nnc(-c4ccc(CNC[C@H](C)O)cc4F)o3)n2)cc1 [IA-334, (S)-1-(4-(5-(3-amino-6-(4-(isopropylsulfonyl)phenyl)pyrazin-2-yl)-1,3,4-oxadiazol-2-yl)-3-fluorobenzylamino)propan-2-ol]
≤ 10 | CN(C)C(=O)c1ccc(-c2cnc(N)c(-c3nnc(-c4cccc(N)c4)o3)n2)cc1 [IA-142, 4-[5-amino-6-[5-(3-aminophenyl)-1,3,4-oxadiazol-2-yl]pyrazin-2-yl]-N,N-dimethyl-benzamide]
